One data set deals with SOD1^G93A mice. As to the kind of experiment: Body weight of SOD1G93A ALS mice. The settings on record: systemic PrC-210 0.1 MTD, IP. Format: in vivo, mouse. An excerpt: This experiment was designed to illuminate whether PrC-210 is able to stop the progression of diseases which are based on protein aggregation, such as Amyotrophic Lateral Sclerosis (ALS). […] Weight loss was progressive and was in exponential decline along with onset of ALS motor symptoms. […] As ALS pathology is based upon protein aggregation, the findings in this experiment support our inventive concept that PrC-210 is able to suppress protein misfolding and thereby suppress the pathology of these diseases. This invention applies to all neuronal, organ specific and systemic diseases which are caused by protein aggregations, such as neurodegenerative diseases, local and systemic amyloidosis, Type II diabetes, cataract of the eye, etc.

Data set [1] is described as follows: Consumption of PrC-210 thiol by hydrogen peroxide, with or without ammonium acetate. Format: physicochemical. The settings on record: pH 7. The protocol:
We believe that the increased reactivity of the thiol in the presence of negative charges, such as ammonium acetate, also occurs when PrC-210-thiol is in close proximity to other reactive structures, such as hydrogen peroxide. We have studied hydrogen peroxide, as it is a non-radical oxygen species with a much longer half-life than superoxide. We added hydrogen peroxide to an aqueous 5 mM solution of PrC-210 thiol at pH 7.

The nature of data set [2]: Pharmacokinetics study with [14]C-labeled PrC-210, intravenous, male rats. Format: in vivo. The settings on record: after 48 hr. The text has this: We were also interested to see whether PrC-210-cysteine disulfide formation is transient or permanent; permanent PrC-210 hetero-disulfide formation with cellular proteins would be expected to have an impact on protein function and could translate into unwanted, toxic, side effects and should be seen as PrC-210 residues showing up as urinary or fecal metabolites. […] C labeled PrC-210, we found only minimal metabolism of PrC-210 (1.07%) after 48 hr (FIG. 7, unpublished data). It is well described that i) disulfide binding is reversible (see, e.g., Koji Aoyama, Int. J. Mol. Sci. 2021, 22 (9), 5010) and ii) that there are also two highly efficient thiol reducing systems in the cell (see, e.g., Cumming et al., The Journal of Biological Chemistry vol. 279, No. 21, Issue of May 21, pp. 21749-21758, 2004), which reduce disulfide bonds between glutathione and proteins in non-oxidative stress situations (see, e.g., Koji Aoyama, Int. J. Mol. Sci. 2021, 22 (9), 5010). Based upon both our experimental findings and the published literature, it would then be logical that PrC-210 disulfide bonds with proteins would be governed by the same chemical and enzymatic processes.

The test system of another data set is Cytochrome C. As to the kind of experiment: Cytochrome C release in mouse heart after 8.68 Gy, PrC-210 given 24 hours after irradiation. Format: in vivo. The settings on record: PrC-210 0.3 MTD given 24 hours post-irradiation. The protocol:
Different from the first peak after 12 hours, this peak is not due to DNA damage and activation of the intrinsic apoptotic pathway, as there is neither an associated p53 nor 8-oxo-dG increase at 48 hours post-irradiation (data not shown), nor an activation of the intrinsic apoptotic pathway (FIG. 11B). This peak represents a massive damage of complex IV of the respiratory chain, which is located at the inner mitochondrial membrane. […] This discovery teaches us, that PrC-210 enters mitochondria and protects the proteins and lipids of the mitochondrial membranes against insults, insults which result in the release of cytochrome C. This invention applies to all diseases which are caused by damage of the mitochondria, such as aging and all age-related diseases, neurodegenerative diseases, diseases of the cardio-vascular system, such as arteriosclerosis, damage of the heart valves or main arteries, and in general to diseases caused by damage of the mitochondria membranes, the mitochondria DNA and proteins.

For data set [3] the following is noted: within its therapeutic window; cited from earlier work.
Data set [4] is described as follows: pKa of the two PrC-210 amines from NMR pH titration. Format: physicochemical. The settings on record: pH titrations between pH 9.0 and 13.0; FIG. 3 legend: 3 pH units above physiological pH. How it is done:
(§1) We established the chemical structure profile of PrC-210 using Nuclear Magnetic Resonance (NMR) spectroscopy experiments. […] This structural stability of the PrC-210 mono-thiol form in this pH range remained for at least the observed 24 hours. […] In our pH titrations between pH 9.0 and 13.0, we saw clear structural changes to PrC-210; from these progressive changes, we calculated that the pKas of the two PrC-210 amines are all substantially above the pH (pH 7.2) of physiological conditions (FIG. 3).

In a further data set the test system is Caspase 8, Caspase 3/7. As to the kind of experiment: Apoptosis markers in mice irradiated with 8.68 Gy, PrC-210 given before irradiation. Format: in vivo, mouse. The protocol: To examine PrC-210-conferred protection in an animal model, we irradiated mice with 8.68 Gy and treated them with a 0.5MTD dose of PrC-210 30 minutes before irradiation. Normally, lethal radiation with 8.68 Gy leads to massive DNA damage and activation of the intrinsic apoptotic pathway. […] This means that the radiation insult didn't trigger a significant activation of the intrinsic apoptotic pathway nor did it trigger a mitotic arrest with p53 activation. […] This apoptotic suppression and protection lasted for the entire observation time of six days, which is a sign, that PrC-210 was still present after six days. When we looked at mouse plasma in the same experiment, we saw the same 6 days apoptotic suppression as in the brain in caspase 3/7 levels (FIG. 9F).

Data set [5] is described as follows: 1H NMR stability of PrC-210 in deuterated water under pH titration. Format: physicochemical. The protocol: as §1
In a further data set the test system is C57 mice. As to the kind of experiment: EAE model, paralysis score after immunization with MOG peptide. Format: in vivo, mouse. How it is done:
To show, that PrC-210 suppresses neuroinflammation which is caused by an autoimmune induction of the disease, PrC-210 was applied 24 hours before immunization of C57 mice against MOG peptide (FIG. 13A), and immediately after first paralysis symptoms developed from the autoimmunization against myelin.

For data set [6], the system named is caspase 1, complement 3 (C3). As to the kind of experiment: Inflammation markers in mouse brain after 8.68 Gy, PrC-210 given 24 hours after irradiation. Format: in vivo, ICR mice. The settings on record: 8.68 Gy whole-body, 0.3 MTD i.p. 24 hours after irradiation. The protocol:
To visualize the effect of radiation on the immune response of the mouse brain, ICR mice received 8.68 Gy whole-body radiation (FIG. 10) at Time “0.” O.3MTD, i.p. PrC-210 was administered 24 hours after irradiation. […] The same applied to the inflammation marker, complement 3 (C3) (FIG. 12B). […] Most important, this suppression was a direct suppression of the immune response and was not an indirect suppression through protection of proteins and lipids against damage. Radiation-induced protein damage would have triggered an apoptotic response, as it can be seen in the second peak of caspase 3/7 in FIG. 12C. Therefore, this experiment teaches that PrC-210 is able to enter the brain and directly suppresses post-irradiation inflammation.

Another data set concerns DBA/1J mice. As to the kind of experiment: Paw swelling in DBA/1J mice immunized against collagen III. Format: in vivo, mouse. The text has this:
To show further, that this suppression of chronic inflammation applies generally to other organs than the brain, DBA/1J mice immunized against collagen III where treated systemically and topically with PrC-210.

Data set [7] is described as follows: 1H NMR stability / thiol reactivity of PrC-210 with ammonium acetate (disulfide formation). Format: physicochemical.
The mark [8] stands for this setting: 0.5 MTD PrC-210 before irradiation.

Entries after “also recorded” stand apart in the source; their conditions may differ.

`CNCC(CS)CNC` [PrC-210]: the “body weight / weight loss” value in the data set on SOD1^G93A mice was “immediate plateau in body weight loss”. In addition, the “effect of ammonium acetate on hydrogen peroxide consumption of PrC-210 thiol” value in data set [1] (ammonium acetate (5 mM) added seconds before hydrogen peroxide (0.5 mM), 5 mM PrC-210 thiol) was “significant enhancement; also recorded: significantly enhanced”. Moreover, in data set [1] (aqueous 5 mM PrC-210 thiol), the “consumption of free PrC-210 thiol by hydrogen peroxide” value is on record as “dose-dependent consumption”. Also, the “metabolism of PrC-210” value in data set [2] was found to be 1.07%. The “cytochrome C release in heart muscle (second peak, 48 hours post-irradiation)” value in the data set on Cytochrome C is “suppress cytochrome C release to background”. Also, the toxic side effects result in data set [3] is “no toxic side effects”. For the same compound, the “pKas of the two amines of PrC-210” value in [4] is over 7.2. Besides, in the data set with Caspase 8, Caspase 3/7 (0.5 MTD PrC-210 30 min before irradiation), the “Caspase 3/7 level in mouse plasma” value is “suppressed to background”. In the data set on Caspase 8, Caspase 3/7 (0.5 MTD PrC-210, entire observation time), the “duration of apoptotic suppression and protection in brain” value is reported as “six”. For the same compound, in the data set with Caspase 8, Caspase 3/7 (0.5 MTD PrC-210, same experiment), the “duration of apoptotic suppression (caspase 3/7) in mouse plasma” value amounted to 6 days. In addition, in the data set with Caspase 8, Caspase 3/7 (setting [8]), the “Caspase 3/7 level in mouse brain” value is recorded as “suppressed to background”. Besides, the “Caspase 8 level in mouse brain” value in the data set with Caspase 8, Caspase 3/7 (setting [8]) is “suppressed to background”. Besides, the “stability at high pH after 72 hours (1H NMR)” value in [5] (deuterated water, pH 9.0, 72 hrs) is listed as “significant change; also recorded: some instability”. Besides, the “effect of the thiol blocker TCEP on PrC-210 stability” value in [5] (water, pH 9.0, 72 hr, TCEP added, data not shown) is recorded as “doesn't influence the PrC-210 stability”. The “development and severity of paralysis symptoms” value in the data set on C57 mice (twice weekly intraperitoneal PrC-210 started 24 hours before immunization with MOG peptide) and in the data set on C57 mice (twice weekly intraperitoneal PrC-210 started when first paralysis symptoms were observed) was “significantly suppressing” each time. The “inflammation marker complement 3 (C3) in mouse brain” value in data set [6] was “significantly suppressed”. Moreover, the “inflammasome marker caspase 1 in mouse brain” value in [6] (starting eight days after radiation) is recorded as “significantly suppressed”. For the same compound, the swelling of paws result with DBA/1J mice (370 mM PrC-210 applied topically, started at paw swelling score higher than 10) is given as “significantly reduced”; with DBA/1J mice (twice weekly intraperitoneal injection of 0.075 MTD PrC-210, started with first paw symptoms), “significantly reduced”. The half-life in data set [7] (aqueous solution with ammonium acetate, ammonium acetate added to aqueous PrC-210 mono-thiol solution, pH 7.2 (FIG. 6A)) was 3.1 h. The “stability of PrC-210 with ammonium acetate and TCEP (1H NMR)” value in data set [7] (deuterated water with ammonium acetate and thiol blocker TCEP, pH 7.0, 24 hours) was “remains stable”. Moreover, in data set [7] (deuterated water with ammonium acetate, pH 7.0, 1 hour and 24 hours), the “structural change of PrC-210 with ammonium acetate (1H NMR)” value is reported as “substantial structural changes within hours”. The “PrC-210 half-life in water” value in data set [7] (water, previously observed) is listed as “days”.

The record behind these values is patent US20260232608A1, “AMINOTHIOLS FOR THE TREATMENT OF CONDITIONS CHARACTERIZED BY PROTEIN MISFOLDING OR AGGREGATION, MITOCHONDRIAL DYSFUNCTION, OR CHRONIC INFLAMMATION” (Obvia Pharmaceuticals, Ltd., priority 2023, published 2026).
